Patent US11859208B2, “Methods of treating cancer using cell based therapies” (Emory University, priority 2016, dated 2024)
“Also recorded” adds a separate entry of the source.

What was measured:
[1] = test system: senescent T cells from a patient with lymphoma; test: 10 day in vitro expansion of senescent lymphoma patient T cells with anti-CD3/CD28 beads, flow cytometric analysis; type: cell-based, human; details: for fraction of senescent T cells that lacked both CD27 and CD28: control 55.2%; for numbers of effector memory T cells (Tem): 10-day cultures; for in vitro expansion of senescent T cells: anti CD3/CD28 beads, single agents or in combination
Experimental: Monocytes were depleted from the T cell sample, as monocytes are known to inhibit T cell expansion in cultures containing anti-CD3/CD28 beads. The effect of a range of idelalisib concentrations were compared alone and in combination with 3 uM VIP peptide antagonist (VIPhyb) or 1 ug/ml mast cell chymase, an enzyme that degrades endogenous VIP on T cell activation, differentiation and proliferation. Numbers of viable T cells were measured during a 10 day in vitro cultures as well as the T cell differentiation and activation profiles, focusing on the relative numbers of T cells with a senescent phenotype in which co-stimulatory receptors CD27 and CD28 are both absent (CD27− CD28−), to an activated phenotype, in which either CD27, CD28, or both co-stimulatory receptors are present (CD27+CD28+).
Aliquots of frozen patient apheresis products or PBMC from ficolled whole blood were rapidly thawed and rested overnight in complete RPMI 1640 supplemented with 10% fetal bovine serum, 100 U/mL penicillin, 100 μg/mL streptomycin, and 50 μM 2-mercaptoethanol (complete media). The following day, red blood cells were removed from apheresis products by ficoll gradient. The leukocytes were then enriched for T cells using an EasySep human T cell enrichment kit according to manufacturer's instructions. Cells were plated in 200 μL of complete media in each well of a 96 well flat-bottom plate. Compounds were added at the indicated concentrations, and the DMSO concentration was normalized to 0.1% for all wells. Anti-CD3/CD28 beads were added at a 1:1 bead:cell ratio. On day 7 post-stimulation, cells from each treatment were transferred to new media. Fresh compounds and beads were then added, and the cells were cultured for an additional 3 days. On day 10 post-initial stimulation, the beads were removed, and the cells were stained for flow cytometric analysis.
Cells were washed twice in PBS. The cells were also stained using a fixable viability dye. Surface markers were then stained by adding fluorochrome-conjugated antibodies to CD3, CD4, CD8, CD27, CD28, CD45RA, CD45RO, PD-1, and CCR7. To assess proliferation, half the cells were evaluated for expression of Ki67. Ki67 staining was performed using a FoxP3 intracellular staining kit. Just prior to running samples, Accucheck counting beads were added to each tube. Samples were acquired on a BD FACS Aria, and analysis was performed using FlowJo software. Viable cells were used in the analysis. The absolute numbers of cells was calculated for each population according to instructions provided by the manufacturer of the Accucheck counting beads.

[2] = test system: Bcl-2 in lymphoma patient T cells; test: Bcl-2 expression in patient T cell expansion cultures (SDS-PAGE, membrane probing); type: cell-based, human; details: lysates on days 7 and 14, actin loading control
Experimental: Protein lysates from patient T cell expansion cultures were prepared on days 7 and 14. Samples were run on an SDS-PAGE gel prior to transfer to a nitrocellulose membrane. The membrane was then probed for the pro-survival Bcl-2 protein, stripped, and then re-probed for actin as a loading control.

DLBCL patient T cells = test: DLBCL patient T cell expansion for 14 days with CD3/CD28 beads and IL-2; type: cell-based, human
[3] = cited from earlier work
E.G7-OVA cells = test: OVA-expressing lymphoma model: adoptive transfer of T cells expanded with the compounds; type: in vivo, mouse; details: OT-I, OT-II and B6 T cells expanded 3 days with compound, injected intravenously on day 7 of tumor growth
Experimental: Mice were injected subcutaneously with 5×10^5 E.G7-OVA cells which were allowed to grow for 7 days until a palpable tumor formed. During this period, OT-I, OT-II, and B6 T cells were expanded with CD3/CD28 beads in the presence of IL-2 and the indicated compounds for 3 days. On day 7 of tumor growth, mice were injected intravenously with a combination of expanded OT-I, OT-II, and B6 T cells (2×10^6 OT-I, 1×10^6 OT-II, and 2×10^6 B6 cells) or 2×10^6 B6 T cells as a control. Mice were then monitored for tumor growth which was calculated as (L×W2)/2.

[4] = test system: luciferase B6 splenic T cells; test: One-way mixed lymphocyte reaction (MLR), T-cell proliferation stimulated by alloantigen; type: cell-based, mouse; details: for T-cell proliferation in MLR: luciferase B6 splenic T cells, 3 days with irradiated FVB splenocytes, daily addition, 0-10 mmol/L
Experimental: Proliferation of luciferase B6 splenic T cells cultured for 3 days in MLR with irradiated FVB splenocytes, with daily addition of VIP and/or VIPhyb to achieve the concentrations shown (0-10 mmol/L).
To explore the role of VIP signaling in allo-immune responses, one-way mixed lymphocyte reactions (MLR) were performed containing VIP and/or the antagonistic VIPhyb peptide.

[5] = test system: T-cells from the patient with relapsed lymphoma; test: Sorted T cells of a relapsed lymphoma patient cultured with anti-CD3/anti-CD28 beads (Ki67, PD-1 flow cytometry); type: cell-based, human; details: for T-cell proliferation in subsets lacking CD27 or CD28: sorted subsets, anti-CD3/CD28 beads
Source text: Using high-speed cell sorting subsets of T-cells were isolated defined by their levels of CD27 and CD28 expression from the patient with relapsed lymphoma and a healthy control. CD3 positive T-cells with each of the four phenotypes defined by CD27 and CD28 expression were sorted and cultured in vitro in the presence of anti-CD3/anti-CD28 beads. While total T-cells from healthy donors had 100% expression of the Ki67 proliferation marker following four days of culture, the corresponding total T-cell population from the patient with anergic T-cells following treatment for lymphoma had only 90% of T-cells expressing the Ki67 marker.
Following the daily addition of 3 uM VIPhyb to these cultures, the proportion of Ki67 positive T-cells from the anergic lymphoma patient was increased to 100%. […] In contrast, the T-cell subsets lacking expression of either CD27 or CD28 or both markers had impaired proliferated response when incubated with the anti-CD3/CD28 beads.

[6] = cited from earlier work; remark: listed apart in the source
[7] = inclusion during T cell activation

CC[C@H](Nc1ncnc2[nH]cnc12)c1nc2cccc(F)c2c(=O)n1-c1ccccc1 [idelalisib, (S)-2-(1-(9H-purin-6-ylamino)propyl)-5-fluoro-3-phenylquinazolin-4(3H)-one]
fraction of senescent T cells that lacked both CD27 and CD28 ([1]; 10 nM idelalisib): 16.1% | numbers of effector memory T cells (Tem) [1]: increased | in vitro expansion of senescent T cells [1]: significantly expanded | proportion of T cells co-expressing CD27 and CD28 ([1]; idelalisib 1 uM or 100 nM, compared to control cultures with no added drug): significantly increased | expression of Bcl-2 [2]: increased | frequency of CD27+CD28+ cells (DLBCL patient T cells): increases | frequency of CD27-CD28- cells (DLBCL patient T cells): decreasing | number of viable T cells obtained (DLBCL patient T cells; [7]): increases | proportion of naive and central memory cells (DLBCL patient T cells; [7]): increases | adverse signs and symptoms in treated patients ([3]; human, in vivo): auto immune-like signs and symptoms including colitis and rash | anti-cancer responses after drug treatment has stopped ([3]; human, in vivo): continued anti-cancer responses | T-cell activation in patients with CLL ([3]; idelalisib treatment): increased T-cell activation | therapeutic efficacy of expanded mouse T cells (tumor growth) (E.G7-OVA cells): enhances their therapeutic efficacy

VIPhyb: VIP receptor antagonist, hybrid peptide of neurotensin and VIP, (SEQ ID NO: 1) KPRRPYTDNYTRLRKQMAVKKYLNSILN
effect on the suppression of T-cell proliferation by VIP ([4]; MLR with VIP and VIPhyb): mitigated the inhibitory effect of the native VIP peptide on T-cell proliferation; also recorded: reversed the suppressive effect of VIP in MLR | T-cell proliferation in MLR [4]: augmented in vitro T-cell proliferation; also recorded: augmented T cell proliferation in vitro; also recorded: increased T-cell proliferation | PD-1 expression ([5]; 3 uM VIPhyb, compared with control cultures without VIP antagonist): decreased levels of PD-1 expression | proportion of Ki67 positive T-cells ([5]; daily addition of 3 uM VIPhyb, total T-cells of anergic lymphoma patient, anti-CD3/anti-CD28 beads, 90% without VIPhyb): 100% | T-cell proliferation in subsets lacking CD27 or CD28 [5]: augmented T-cell proliferation | fraction of senescent T cells that lacked both CD27 and CD28 ([1]; 3 uM VIPhyb): 35.7% | numbers of effector memory T cells (Tem) [1]: increased | in vitro expansion of senescent T cells [1]: significantly expanded | expression of Bcl-2 [2]: increased | frequency of CD27+CD28+ cells (DLBCL patient T cells): increases | frequency of CD27-CD28- cells (DLBCL patient T cells): decreasing | therapeutic efficacy of expanded mouse T cells (tumor growth) (E.G7-OVA cells): enhances their therapeutic efficacy

VIP: (SEQ ID NO: 12) HSDAVFTDNYTRLRKQMAVKKYLNSILN, endogenous polypeptide
T-cell proliferation in MLR [4]: decreased Luciferase T-cell proliferation in a dose-dependent manner | half-life in vivo [6]: less than two

B1: IL 12: IL-12 added to T cell cultures with anti-CD3/CD28 beads (protein, UniProt P29459 23-219; P29460 23-328, looked up)
Interleukin-12 subunit alpha: RNLPVATPDPGMFPCLHHSQNLLRAVSNMLQKARQTLEFYPCTSEEIDHEDITKDKTSTVEACLPLELTKNESCLNSRETSFITNGSCLASRKTSFMMALCLSSIYEDLKMYQVEFKTMNAKLLMDPKRQIFLDQNMLAVIDELMQALNFNSETVPQKSSLEEPDFYKTKIKLCILLHAFRIRAVTIDRVMSYLNAS
Interleukin-12 subunit beta: IWELKKDVYVVELDWYPDAPGEMVVLTCDTPEEDGITWTLDQSSEVLGSGKTLTIQVKEFGDAGQYTCHKGGEVLSHSLLLLHKKEDGIWSTDILKDQKEPKNKTFLRCEAKNYSGRFTCWWLTTISTDLTFSVKSSRGSSDPQGVTCGAATLSAERVRGDNKEYEYSVECQEDSACPAAEESLPIEVMVDAVHKLKYENYTSSFFIRDIIKPDPPKNLQLKPLKNSRQVEVSWEYPDTWSTPHSYFSLTFCVQVQGKSKREKKDRVFTDKTSATVICRKNASISVRAQDRYYSSSWSEWASVPCS
T-cell proliferation in subsets lacking CD27 or CD28 [5]: significant impact in increasing the proliferation fraction of T-cells that were CD28 negative but not those that were CD27 negative

B2: mast cell chymase: an enzyme that degrades endogenous VIP; human CMA1 (protein, UniProt P23946 22-247, looked up)
Chymase: IIGGTECKPHSRPYMAYLEIVTSNGPSKFCGGFLIRRNFVLTAAHCAGRSITVTLGAHNITEEEDTWQKLEVIKQFRHPKYNTSTLHHDIMLLKLKEKASLTLAVGTLPFPSQFNFVPPGRMCRVAGWGRTGVLKPGSDTLQEVKLRLMDPQACSHFRDFDHNLQLCVGNPRKTKSAFKGDSGGPLLCAGVAQGIVSYGRSDAKPPAVFTRISHYRPWINQILQAN
fraction of senescent T cells that lacked both CD27 and CD28 ([1]; 1 μg per ml mast cell chymase): 37.4% | in vitro expansion of senescent T cells [1]: significantly expanded
